Data reported in ChEMBL document CHEMBL3885861, “Open TG-GATES”.

Species on record: Rattus norvegicus
Test: Open TG-GATES - Regimen: Daily Repeat
Type: toxicity, organism-based, Sprague-Dawley
Design: regimen Daily Repeat, gender Male, age 6 weeks
Conditions: in vivo, po, 30 mg/kg, route gavage, dose level Low; for APTT / Bas / Eos / Fbg / Hb / Ht / Lym / MCH / MCHC / MCV / Mono / Neu / PT / Plat / RBC / Ret / WBC: tissue Blood; for KIDNEY_L / KIDNEY_R / KIDNEY_TOTAL: tissue Kidney; for LIVER: tissue Liver; for A/G / ALP / ALT / AST / BUN / CRE / Ca / Cl / DBIL / GLC / IP / K / LDH / Na / PL / RALB / TBIL / TC / TG / TP / gamma-GTP: tissue Plasma

## Cc1cccc(Nc2ccccc2C(=O)O)c1C [MEFENAMIC ACID]
72 h, time 3 day
  TERMINAL_BW: 232.8 g
  APTT: 19.8 s
  Bas: 0%
  Eos: 1%
  Fbg: 221.8 mg/dL
  Hb: 13.4 g/dL
  Ht: 38.3%
  Lym: 79.6%
  MCH: 21.4 pg
  MCHC: 35%
  MCV: 61.1 fL
  Mono: 2.4%
  Neu: 15.4%
  PT: 11.9 s
  Plat: 117.6 x10_4/uL
  RBC: 627.4 x10_4/ul
  Ret: 5.6%
  WBC: 94.5 x10_2/uL
  KIDNEY_L: 1 g
  KIDNEY_R: 1 g
  KIDNEY_TOTAL: 2 g
  LIVER: 10.6 g
  A/G: 1.6
  ALP: 1154.4 IU/L
  ALT: 36.2 IU/L
  AST: 66.2 IU/L
  BUN: 14.6 mg/dL
  CRE: 0.4 mg/dL
  Ca: 10.8 mg/dL
  Cl: 102 meq/L
  DBIL: 0.09 mg/dL
  GLC: 190.6 mg/dL
  IP: 7.8 mg/dL
  K: 4.2 meq/L
  LDH: 171.8 IU/L
  Na: 140 meq/L
  PL: 164.6 mg/dL
  RALB: 3.5 g/dL
  TBIL: 0.2 mg/dL
  TC: 91 mg/dL
  TG: 94.4 mg/dL
  TP: 5.6 g/dL
  gamma-GTP: 0.8 IU/L
[…], time 7 day
  TERMINAL_BW: 268.5 g
  APTT: 19.2 s
  Bas: 0%
  Eos: 1.4%
  Fbg: 237 mg/dL
  Hb: 14 g/dL
  Ht: 39%
  Lym: 80.4%
  MCH: 22.2 pg
  MCHC: 35.8%
  MCV: 61.9 fL
  Mono: 2%
  Neu: 15%
  PT: 11.8 s
  Plat: 125.5 x10_4/uL
  RBC: 629.6 x10_4/ul
  Ret: 5.4%
  WBC: 98.6 x10_2/uL
  KIDNEY_L: 1.1 g
  KIDNEY_R: 1.1 g
  KIDNEY_TOTAL: 2.2 g
  LIVER: 12.3 g
  A/G: 1.6
  ALP: 1054 IU/L
  ALT: 38.2 IU/L
  AST: 69.8 IU/L
  BUN: 15 mg/dL
  CRE: 0.4 mg/dL
  Ca: 10.6 mg/dL
  Cl: 102.8 meq/L
  DBIL: 0.098 mg/dL
  GLC: 222.6 mg/dL
  IP: 7.2 mg/dL
  K: 3.7 meq/L
  LDH: 204.4 IU/L
  Na: 140.2 meq/L
  PL: 152.4 mg/dL
  RALB: 3.5 g/dL
  TBIL: 0.2 mg/dL
  TC: 75.8 mg/dL
  TG: 114.2 mg/dL
  TP: 5.7 g/dL
  gamma-GTP: 0.8 IU/L
[…], time 14 day
  TERMINAL_BW: 312.8 g
  APTT: 19.6 s
  Bas: 0%
  Eos: 1%
  Fbg: 224.2 mg/dL
  Hb: 14.5 g/dL
  Ht: 40.6%
  Lym: 80%
  MCH: 21.5 pg
  MCHC: 35.7%
  MCV: 60.3 fL
  Mono: 2.4%
  Neu: 15.4%
  PT: 12.1 s
  Plat: 117 x10_4/uL
  RBC: 673.6 x10_4/ul
  Ret: 4%
  WBC: 93.1 x10_2/uL
  KIDNEY_L: 1.2 g
  KIDNEY_R: 1.2 g
  KIDNEY_TOTAL: 2.4 g
  LIVER: 13.7 g
  A/G: 1.4
  ALP: 881.8 IU/L
  ALT: 33.4 IU/L
  AST: 57.8 IU/L
  BUN: 16 mg/dL
  CRE: 0.4 mg/dL
  Ca: 10.6 mg/dL
  Cl: 103.4 meq/L
  DBIL: 0.098 mg/dL
  GLC: 205.2 mg/dL
  IP: 7.1 mg/dL
  K: 3.9 meq/L
  LDH: 152.4 IU/L
  Na: 140.8 meq/L
  PL: 151.4 mg/dL
  RALB: 3.3 g/dL
  TBIL: 0.2 mg/dL
  TC: 74.4 mg/dL
  TG: 125 mg/dL
  TP: 5.7 g/dL
  gamma-GTP: 1 IU/L
[…], time 28 day
  TERMINAL_BW: 397.4 g
  APTT: 18.7 s
  Bas: 0%
  Eos: 1.2%
  Fbg: 248.6 mg/dL
  Hb: 15.6 g/dL
  Ht: 43.9%
  Lym: 81.8%
  MCH: 20.4 pg
  MCHC: 35.5%
  MCV: 57.5 fL
  Mono: 2.2%
  Neu: 13%
  PT: 12.1 s
  Plat: 107.9 x10_4/uL
  RBC: 764.2 x10_4/ul
  Ret: 2.5%
  WBC: 93.1 x10_2/uL
  KIDNEY_L: 1.4 g
  KIDNEY_R: 1.4 g
  KIDNEY_TOTAL: 2.8 g
  LIVER: 16.1 g
  A/G: 1.4
  ALP: 696 IU/L
  ALT: 32.8 IU/L
  AST: 57.8 IU/L
  BUN: 17.8 mg/dL
  CRE: 0.5 mg/dL
  Ca: 10.5 mg/dL
  Cl: 103.8 meq/L
  DBIL: 0.082 mg/dL
  GLC: 227 mg/dL
  IP: 6.6 mg/dL
  K: 3.5 meq/L
  LDH: 103.4 IU/L
  Na: 141.2 meq/L
  PL: 146.2 mg/dL
  RALB: 3.5 g/dL
  TBIL: 0.1 mg/dL
  TC: 78.2 mg/dL
  TG: 97 mg/dL
  TP: 6.1 g/dL
  gamma-GTP: 1.2 IU/L
